Earlier results in US20050154020A1, “4-Aryl piperidines” (Synaptic Pharmaceutical Corporation, priority 2004, published 2005).

How the values were obtained:
[1] = target: T1, MCH1 (Rattus norvegicus, UniProt P97639)
T1 construct: from tissue; host or cells: whole living rat (in vivo behavioural model)

[2] = target: T1, MCH1; remark: listed apart in the source
[3] = target: T2, MCH1 (Cavia porcellus, UniProt H0VKT7)
T2 construct: from tissue; host or cells: whole living guinea pig (in vivo behavioural model)
T2 sequence (H0VKT7 1-355): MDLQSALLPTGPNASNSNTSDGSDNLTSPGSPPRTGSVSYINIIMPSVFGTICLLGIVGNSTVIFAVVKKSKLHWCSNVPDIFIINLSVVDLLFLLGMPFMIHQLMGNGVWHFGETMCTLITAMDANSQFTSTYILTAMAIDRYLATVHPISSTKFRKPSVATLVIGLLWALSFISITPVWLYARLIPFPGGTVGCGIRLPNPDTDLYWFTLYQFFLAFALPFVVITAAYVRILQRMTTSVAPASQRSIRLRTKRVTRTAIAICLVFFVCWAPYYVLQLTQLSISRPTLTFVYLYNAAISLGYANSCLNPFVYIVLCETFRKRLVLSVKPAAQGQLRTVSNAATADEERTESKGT

T1 sequence (P97639 whole entry): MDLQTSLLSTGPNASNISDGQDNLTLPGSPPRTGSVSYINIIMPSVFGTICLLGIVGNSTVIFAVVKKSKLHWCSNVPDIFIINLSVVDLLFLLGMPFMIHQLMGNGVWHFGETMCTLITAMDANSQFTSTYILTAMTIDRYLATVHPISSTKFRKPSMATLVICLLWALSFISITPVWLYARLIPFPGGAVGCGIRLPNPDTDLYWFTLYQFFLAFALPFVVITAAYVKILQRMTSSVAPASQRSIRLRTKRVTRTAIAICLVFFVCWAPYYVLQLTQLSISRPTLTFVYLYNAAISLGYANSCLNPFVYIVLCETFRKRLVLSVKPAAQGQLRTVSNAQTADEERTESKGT

For `COCC1=C(C(=O)OC)[C@H](c2ccc(F)c(F)c2)N(C(=O)NCCCN2CCC(c3cccc(NC(C)=O)c3)CC2)C(=O)N1` [SNAP-7941], the “effect in rat forced-swim test (model of depression/anxiety)” value [1] is given as “effects similar to clinically used antidepressants and anxiolytics”, the “effect in rat social interaction test (model of depression/anxiety)” value [2] is given as “effects similar to clinically used antidepressants and anxiolytics” and the “effect in guinea pig maternal-separation vocalization test (model of depression/anxiety)” value [3] is given as “effects similar to clinically used antidepressants and anxiolytics”.
